Results taken from article PMC8445441, “Elucidating the mechanism by which synthetic helper peptides sensitize Pseudomonas aeruginosa to multiple antibiotics” (PLoS Pathogens, 2021).
Read-outs that look alike come from different tables or passages of the source. Positions of bridges follow the written chain, without caps; N, C: chain ends. Non-standard residues stand in square brackets, D forms with d. Residues, ends and D or L forms follow the SMILES beside them. *: point of attachment. X1 = CC[C@H](C)CCCCC(=O)*; Dab = NCC[C@H](N)C(=O)O

How the values were obtained:
[1] = tested on: P. aeruginosa AUMC-Pa-1; details: strain AUMC-Pa-1; for FICI: antibiotic + D-11 (MICb/MICbc 128/4)
How it was run: (§1)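 Broth microdilution per CLSI in MHB: two-fold drug dilutions mixed with an equal volume of bacterial suspension at approximately 1 × 10^6 CFU/mL, incubated 18 h at 37 °C. MIC was the lowest concentration with no visible growth; triplicate runs.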

[2] = tested on: P. aeruginosa AUMC-Pa-2; details: strain AUMC-Pa-2; for FICI: antibiotic + D-11 (MICb/MICbc 64/4)
How it was run: as §1

[3] = tested on: P. aeruginosa NR-31040; assay: microbe, parasite or virus in culture; design: MICa: MIC of the antibiotic / MICac: MIC of the antibiotic in the combination: unit not given beside the values; details: strain NR-31040; for FICI: antibiotic + D-11 (MICb/MICbc 128/4); for MICa: MIC of the antibiotic: antibiotic alone; for MICa: MIC of the antibiotic / MICac: MIC of the antibiotic in the combination: unit not given; for MICac: MIC of the antibiotic in the combination: with D-11 at MICbc 4
How it was run: as §1

[4] = tested on: P. aeruginosa PAK; assay: microbe, parasite or virus in culture; design: MICa: MIC of the antibiotic / MICac: MIC of the antibiotic in the combination: unit not given beside the values; details: strain PAK; for FICI: antibiotic + D-11 (MICb/MICbc 64/4); for MICa: MIC of the antibiotic: antibiotic alone; for MICa: MIC of the antibiotic / MICac: MIC of the antibiotic in the combination: unit not given; for MICac: MIC of the antibiotic in the combination: with D-11 at MICbc 4
How it was run: as §1

[5] = tested on: P. aeruginosa NR-31041; assay: microbe, parasite or virus in culture; design: MICa: MIC of the antibiotic / MICac: MIC of the antibiotic in the combination: unit not given beside the values; details: strain NR-31041; for FICI: antibiotic + D-11 (MICb/MICbc 64/4); for MICa: MIC of the antibiotic: antibiotic alone; for MICa: MIC of the antibiotic / MICac: MIC of the antibiotic in the combination: unit not given; for MICac: MIC of the antibiotic in the combination: with D-11 at MICbc 4
How it was run: as §1

[6] = tested on: P. aeruginosa ATCC27853; assay: microbe, parasite or virus in culture; design: MICa: MIC of the antibiotic / MICac: MIC of the antibiotic in the combination: unit not given beside the values; details: strain ATCC27853; for FICI: antibiotic + D-11 (MICb/MICbc 32/4); for MICa: MIC of the antibiotic: antibiotic alone; for MICa: MIC of the antibiotic / MICac: MIC of the antibiotic in the combination: unit not given; for MICac: MIC of the antibiotic in the combination: with D-11 at MICbc 4
How it was run: as §1

[7] = tested on: P. aeruginosa PA14; assay: microbe, parasite or virus in culture; design: MICa: MIC of the antibiotic / MICac: MIC of the antibiotic in the combination: unit not given beside the values; details: strain PA14; for FICI: antibiotic + D-11 (MICb/MICbc 128/4); for MICa: MIC of the antibiotic: antibiotic alone; for MICa: MIC of the antibiotic / MICac: MIC of the antibiotic in the combination: unit not given; for MICac: MIC of the antibiotic in the combination: with D-11 at MICbc 4
How it was run: as §1

[8] = tested on: P. aeruginosa HM-214; design: MICa: MIC of the antibiotic / MICac: MIC of the antibiotic in the combination: unit not given beside the values; details: strain HM-214; for FICI: antibiotic + D-11 (MICb/MICbc 128/4)
How it was run: as §1

[9] = tested on: clinical P. aeruginosa isolates; assay: microbe, parasite or virus in culture; details: antibiotic alone; for MIC: Pseudomonas aeruginosa, 18 h
How it was run: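 Broth microdilution per CLSI in MHB, two-fold drug dilutions mixed with an equal volume of bacteria at about 1 × 10^6 CFU/mL. After 18 h at 37 °C, MIC taken as the lowest concentration with no visible growth; run in triplicate.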

[10] = tested on: P. aeruginosa AUMC-Pa-6; assay: microbe, parasite or virus in culture; details: strain AUMC-Pa-6; for FICI: antibiotic + D-11 (MICb/MICbc 64/4); for MICa: MIC of the antibiotic: antibiotic alone; for MICa: MIC of the antibiotic / MICac: MIC of the antibiotic in the combination: unit not given; for MICac: MIC of the antibiotic in the combination: with D-11 at MICbc 4
How it was run: as §1

[11] = tested on: P. aeruginosa AUMC-Pa-4; assay: microbe, parasite or virus in culture; details: strain AUMC-Pa-4; for FICI: antibiotic + D-11 (MICb/MICbc 128/4); for MICa: MIC of the antibiotic: antibiotic alone; for MICa: MIC of the antibiotic / MICac: MIC of the antibiotic in the combination: unit not given; for MICac: MIC of the antibiotic in the combination: with D-11 at MICbc 4
How it was run: as §1

[12] = tested on: P. aeruginosa PAO1; assay: microbe, parasite or virus in culture; details: for FICI / MICac: the MIC for the antibiotic in the combination: S3 Table
How it was run: as §1

[13] = tested on: P. aeruginosa AUMC-Pa-5; assay: microbe, parasite or virus in culture; details: strain AUMC-Pa-5; for FICI: antibiotic + D-11 (MICb/MICbc 64/4); for MICa: MIC of the antibiotic: antibiotic alone; for MICa: MIC of the antibiotic / MICac: MIC of the antibiotic in the combination: unit not given; for MICac: MIC of the antibiotic in the combination: with D-11 at MICbc 4
How it was run: as §1

[14] = tested on: P. aeruginosa AUMC-Pa-3; assay: microbe, parasite or virus in culture; details: strain AUMC-Pa-3; for FICI: antibiotic + D-11 (MICb/MICbc 128/4); for MICa: MIC of the antibiotic: antibiotic alone; for MICa: MIC of the antibiotic / MICac: MIC of the antibiotic in the combination: unit not given; for MICac: MIC of the antibiotic in the combination: with D-11 at MICbc 4
How it was run: as §1

[15] = antibiotic alone, unit not given
[16] = with D-11 at MICbc 4, unit not given

SMILES: C[C@H]1[C@H](NC(=O)/C(=N\OC(C)(C)C(=O)O)c2csc(N)n2)C(=O)N1S(=O)(=O)O [Aztreonam]
- FICI [1]: 0.094
- FICI [2]: 1.063
- FICI [3]: 0.281
- MICa: MIC of the antibiotic [3]: 4
- MICac: MIC of the antibiotic in the combination [3]: 1
- FICI [4]: 0.563
- MICa: MIC of the antibiotic [4]: 8
- MICac: MIC of the antibiotic in the combination [4]: 4
- FICI [5]: 0.188
- MICa: MIC of the antibiotic [5]: 64
- MICac: MIC of the antibiotic in the combination [5]: 8
- FICI [6]: 0.625
- MICa: MIC of the antibiotic [6]: 8
- MICac: MIC of the antibiotic in the combination [6]: 4
- FICI [7]: 0.531
- MICa: MIC of the antibiotic [7]: 16
- MICac: MIC of the antibiotic in the combination [7]: 8
- FICI [8]: 0.531
- MIC ([9]; read-out: Antibiotic sensibility (MIC) of clinical P. aeruginosa isolate AUMC-Pa-1, strain AUMC-Pa-1): 32 µM
- MIC ([9]; read-out: Antibiotic sensibility (MIC) of clinical P. aeruginosa isolate AUMC-Pa-2, strain AUMC-Pa-2): 4 µM
- MIC ([9]; read-out: Antibiotic sensibility (MIC) of clinical P. aeruginosa isolate AUMC-Pa-3, strain AUMC-Pa-3): 16 µM
- MIC ([9]; read-out: Antibiotic sensibility (MIC) of clinical P. aeruginosa isolate AUMC-Pa-4, strain AUMC-Pa-4): 32 µM
- MIC ([9]; read-out: Antibiotic sensibility (MIC) of clinical P. aeruginosa isolate AUMC-Pa-5, strain AUMC-Pa-5): 16 µM
- MIC ([9]; read-out: Antibiotic sensibility (MIC) of clinical P. aeruginosa isolate AUMC-Pa-6, strain AUMC-Pa-6): 16 µM
- MIC ([9]; read-out: Antibiotic sensibility (MIC) of clinical P. aeruginosa isolate HM-214, strain HM-214): 16 µM
- MIC ([9]; read-out: Antibiotic sensibility (MIC) of clinical P. aeruginosa isolate NR-31040, strain NR-31040): 4 µM
- MIC ([9]; read-out: Antibiotic sensibility (MIC) of clinical P. aeruginosa isolate NR-31041, strain NR-31041): 64 µM
- FICI [10]: 0.563
- MICa: MIC of the antibiotic [10]: 16
- MICac: MIC of the antibiotic in the combination [10]: 8
- FICI [11]: 0.156
- MICa: MIC of the antibiotic [11]: 32
- MICac: MIC of the antibiotic in the combination [11]: 4
- MIC ([12]; Pseudomonas aeruginosa, PAO1, 18 h, read-out: MICa: the MIC of antibiotics, S3 Table, antibiotic alone, PAO1): 8 µM
- FICI ([12]; PAO1, antibiotic + 2 μM D-11): 0.188
- FICI ([12]; PAO1, antibiotic + 4 μM D-11): 0.156
- MICac: the MIC for the antibiotic in the combination ([12]; PAO1, with 2 μM D-11): 1 µM
- MICac: the MIC for the antibiotic in the combination ([12]; PAO1, with 4 μM D-11): 0.25 µM
- FICI [13]: 0.563
- MICa: MIC of the antibiotic [13]: 16
- MICac: MIC of the antibiotic in the combination [13]: 8
- FICI [14]: 0.094
- MICa: MIC of the antibiotic [14]: 16
- MICac: MIC of the antibiotic in the combination [14]: 1

SMILES: CC[C@H](C)CCCCC(=O)N[C@@H](CCN)C(=O)N[C@H](C(=O)N[C@@H](CCN)C(=O)N[C@H]1CCNC(=O)[C@H]([C@@H](C)O)NC(=O)[C@H](CCN)NC(=O)[C@H](CCN)NC(=O)[C@H](CC(C)C)NC(=O)[C@@H](CC(C)C)NC(=O)[C@H](CCN)NC1=O)[C@@H](C)O [Colistin] (X1-[Dab]T[Dab][Dab][Dab][dL]L[Dab][Dab]T; lactam 4-C (inferred); N-terminus assumed)
- FICI [1]: 0.281
- MICa: MIC of the antibiotic [1, 15]: 0.5
- MICac: MIC of the antibiotic in the combination [1, 16]: 0.125
- FICI [2]: 1.063
- MICa: MIC of the antibiotic [2, 15]: 0.5/0.5
- MICac: MIC of the antibiotic in the combination [2, 16]: 0.5/0.5
- FICI [3]: 0.281
- MICa: MIC of the antibiotic [3]: 1
- MICac: MIC of the antibiotic in the combination [3]: 0.25
- FICI [4]: 0.079
- MICa: MIC of the antibiotic [4]: 0.25
- MICac: MIC of the antibiotic in the combination [4]: 0.008
- FICI [5]: 0.127
- MICa: MIC of the antibiotic [5]: 0.125
- MICac: MIC of the antibiotic in the combination [5]: 0.008
- FICI [6]: 0.375
- MICa: MIC of the antibiotic [6]: 0.25
- MICac: MIC of the antibiotic in the combination [6]: 0.063
- FICI [7]: 0.094
- MICa: MIC of the antibiotic [7]: 0.25
- MICac: MIC of the antibiotic in the combination [7]: 0.016
- FICI [8]: 0.063
- MICa: MIC of the antibiotic [8, 15]: 1
- MICac: MIC of the antibiotic in the combination [8, 16]: 0.031
- Antibiotic sensibility (MIC) of clinical P. aeruginosa isolate AUMC-Pa-1 ([9]; strain AUMC-Pa-1): 0.5 µM
- Antibiotic sensibility (MIC) of clinical P. aeruginosa isolate AUMC-Pa-2 ([9]; strain AUMC-Pa-2): 0.5 µM
- Antibiotic sensibility (MIC) of clinical P. aeruginosa isolate AUMC-Pa-3 ([9]; strain AUMC-Pa-3): 0.25 µM
- Antibiotic sensibility (MIC) of clinical P. aeruginosa isolate AUMC-Pa-4 ([9]; strain AUMC-Pa-4): 8 µM
- Antibiotic sensibility (MIC) of clinical P. aeruginosa isolate AUMC-Pa-5 ([9]; strain AUMC-Pa-5): 4 µM
- Antibiotic sensibility (MIC) of clinical P. aeruginosa isolate AUMC-Pa-6 ([9]; strain AUMC-Pa-6): 4 µM
- Antibiotic sensibility (MIC) of clinical P. aeruginosa isolate HM-214 ([9]; strain HM-214): 1 µM
- Antibiotic sensibility (MIC) of clinical P. aeruginosa isolate NR-31040 ([9]; strain NR-31040): 1 µM
- Antibiotic sensibility (MIC) of clinical P. aeruginosa isolate NR-31041 ([9]; strain NR-31041): 0.125 µM
- FICI [10]: 0.563
- MICa: MIC of the antibiotic [10]: 4
- MICac: MIC of the antibiotic in the combination [10]: 2
- FICI [11]: 0.531
- MICa: MIC of the antibiotic [11]: 8
- MICac: MIC of the antibiotic in the combination [11]: 4
- MICa: the MIC of antibiotics ([12]; PAO1, 18 h): 0.25 µM
- MICac: the MIC for the antibiotic in the combination ([12]; PAO1, with 2 μM D-11): 0.004 µM
- MICac: the MIC for the antibiotic in the combination ([12]; PAO1, with 4 μM D-11): 0.001 µM
- FICI [13]: 1.063
- MICa: MIC of the antibiotic [13]: 4/4
- MICac: MIC of the antibiotic in the combination [13]: 4/4
- FICI [14]: 0.039
- MICa: MIC of the antibiotic [14]: 0.25
- MICac: MIC of the antibiotic in the combination [14]: 0.002
